# Laboratory results reported in patent US11779582B2, “Composition for preventing or treating metastatic ovarian cancer, endometrial cancer or breast cancer” (LEMONEX INC., priority 2017, dated 2023).
# Test system: SKOV3-TR ovarian cancer cells
# Test: FACS assay of DNA content (propidium iodide), Sub-G1
# Assay type: cell-based
# Procedure: More particularly, the degree of cell apoptosis can be confirmed when DNA content in the cell is treated by propidium iodide (PI) staining and is assessed by FACS. If cell apoptosis occurs, genes in the cells are disrupted and Sub-Gi region below G1 is increased.
# FIG. 23 graphically illustrates FACS results, which were divided by a cell cycle in the same experiments described above. Referring to this figure, it can be seen that the treatment using 2.5 μM BGJ398 in combination with 50 nM paclitaxel increases Gub-G1 cells in SKOV-TR cells by about 2.5 times, compared to 50 nM paclitaxel alone, thereby improving anticancer activity.
smiles,measurement,setting,value
"CCN1CCN(c2ccc(Nc3cc(N(C)C(=O)Nc4c(Cl)c(OC)cc(OC)c4Cl)ncn3)cc2)CC1 [BGJ398, 3-(2,6-dichloro-3,5-dimethoxyphenyl)-1-[6-[4-(4-ethylpiperazin-1yl)anilino]pyrimidin-4-yl]-1-methylurea]",increase of Sub-G1 cells,"2.5 μM BGJ398 in combination with 50 nM paclitaxel, compared to 50 nM paclitaxel alone (FIG. 23)",about 2.5 times
same,"apoptotic cells (region below G1, Sub-G1)",BGJ398 in combination with paclitaxel (FIG. 22),the number of apoptotic cells is increased
